From ChEMBL document CHEMBL4622836, “Identification of an ethyl 5,6-dihydropyrazolo[1,5-c]quinazoline-1-carboxylate as a catalytic inhibitor of DNA gyrase” (Bioorg Med Chem, 2020)
Activity calls are given as the source filed them. The calls are words filed in the database; no cut-off is given here.

Columns and labels:
[1] = biological target: DNA gyrase (Escherichia coli, UniProt P0AES4+P0AES6); experiment: Inhibition of Escherichia coli DNA gyrase assessed as supercoiling activity by fluorescence assay relative to control; type: protein-complex assay
[2] = biological target: T1, DNA gyrase (Escherichia coli) (UniProt P0AES6+P0AES4); experiment: Inhibition of Escherichia coli DNA gyrase super-coiling activity at 25uM; type: protein-complex assay
[3] = biological target: T1, DNA gyrase (Escherichia coli); experiment: Poison activity at Escherichia coli DNA gyrase assessed as stabilization of DNA cleavage complex by measuring linear plasmid DNA formation relative to control; type: protein-complex assay
[4] = biological target: T1, DNA gyrase (Escherichia coli); experiment: Inhibition of Escherichia coli DNA gyrase super-coiling activity at 50 uM; type: protein-complex assay
[5] = organism: Bos taurus; experiment: Binding affinity to calf thymus DNA by fluorescence-based DNA binding assay
[6] = tested on: DNA; experiment: Displacement of thiazole orange from DNA (unknown origin) by fluorescence assay; type: nucleic-acid assay

## COc1c(N2CC[C@@H](CN)C2)c(F)cc2c(=O)n(CCNC(=N)N)c(=O)n(C3CC3)c12
[1]
  IC50: > 50 µM

## CCOC(=O)c1cc2c3cc(F)c(N4CC[C@@H](CN)C4)cc3n(CC)c(=O)n2n1
[1]
  IC50: > 50 µM

## Cc1c(N2CC[C@@H](CN)C2)c(F)cc2c(=O)n(CCN)c(=O)n(C3CC3)c12
[1]
  IC50: 17.6 µM
[2]
  inhibition: Active
[3]
  Activity: Active
[4]
  inhibition: Active

## COc1c(N2CC[C@@H](CN)C2)c(F)cc2c(=O)c(C(=O)O)cn(C3CC3)c12
[1]
  IC50: 0.12 µM
[3]
  Activity: Active

## Cc1c(N2CC[C@@H](CN)C2)c(F)cc2c(=O)n(CCNC(=N)N)c(=O)n(C3CC3)c12
[1]
  IC50: 11.5 µM
[2]
  inhibition: Active
[3]
  Activity: Active
[4]
  inhibition: Active

## NCCn1c(=O)c2cc(F)c(N3CC[C@@H](CN)C3)cc2n(C2CC2)c1=O
[1]
  IC50: > 50 µM

## COc1c(N2CC[C@@H](CN)C2)c(F)cc2c(=O)n(CCN)c(=O)n(C3CC3)c12
[1]
  IC50: > 50 µM

## CCOC(=O)c1cnn2c(=O)n(CC)c3cc(N4CC[C@@H](CN)C4)c(F)cc3c12
[1]
  IC50: 3.5 µM
[5]
  Activity: inactive
[2]
  inhibition: Active
[3]
  Activity: inactive
[6]
  Activity: inactive
[4]
  inhibition: Active

## Cc1c(N2CC[C@@H](CN)C2)c(F)cc2c(=O)n(N)c(=O)n(C3CC3)c12
[1]
  IC50: 0.95 µM
[3]
  Activity: Active

## CCn1c(=O)n2nc(C(=O)O)cc2c2cc(F)c(N3CC[C@@H](CN)C3)cc21
[1]
  IC50: > 50 µM

## N=C(N)NCCn1c(=O)c2cc(F)c(N3CC[C@@H](CN)C3)cc2n(C2CC2)c1=O
[1]
  IC50: > 50 µM
